The target of experiment [1] is T1, Hyaluronidase-1 (Homo sapiens, UniProt Q12794).
T1 sequence (Q12794 whole entry): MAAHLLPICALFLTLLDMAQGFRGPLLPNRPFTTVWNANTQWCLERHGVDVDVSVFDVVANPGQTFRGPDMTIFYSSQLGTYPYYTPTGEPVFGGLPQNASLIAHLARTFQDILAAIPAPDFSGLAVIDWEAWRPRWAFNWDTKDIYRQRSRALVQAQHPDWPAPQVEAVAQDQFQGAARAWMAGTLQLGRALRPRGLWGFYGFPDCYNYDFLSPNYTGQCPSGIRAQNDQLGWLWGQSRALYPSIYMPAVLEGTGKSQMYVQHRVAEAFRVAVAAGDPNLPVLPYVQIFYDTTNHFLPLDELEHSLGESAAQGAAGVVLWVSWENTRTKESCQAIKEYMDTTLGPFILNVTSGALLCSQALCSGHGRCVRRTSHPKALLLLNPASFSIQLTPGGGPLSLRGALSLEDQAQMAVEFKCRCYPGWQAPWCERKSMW
Nature of the experiment: Stains-all Assay. Conditions: pH 7; 37 °C. From the text: Stains-all assay were used to test inhibitors at pH of 7.

In experiment [2] the target is T1, Hyaluronidase-1. Kind of experiment: Morgan-Elson Assay. Conditions: pH 3.5; 37 °C. From the text:
Morgan-elson assay were used to test inhibitors at pH of 3.5.

For orientation: IC50 means the concentration that gives 50% inhibition. A higher IC50 goes with lower potency.

`O=C(NCc1ccc(Cl)cc1)c1cc2ccccc2n1Cc1ccc(F)cc1` [N-Substituted indole-2- and 3-carboxamide derivative, 7] came in with an IC50 in experiment [1] of 33 µM. This lies in the double-digit micromolar range. In experiment [1], `O=C(NCc1ccc(F)cc1)c1cc2ccccc2n1Cc1ccc(F)cc1` [N-Substituted indole-2- and 3-carboxamide derivative, 8] returned an IC50 of 29.9 µM.

For `O=C(NCc1ccc(Cl)cc1)c1cc2ccccc2n1Cc1ccccc1` [N-Substituted indole-2- and 3-carboxamide derivative, 2], the IC50 in experiment [2] stood at 64.3 µM; in experiment [1] it was 33.2 µM. `O=C(NCc1ccccc1)c1cc2ccccc2n1Cc1ccc(F)cc1` [N-Substituted indole-2- and 3-carboxamide derivative, 6] came in with an IC50 in experiment [1] of 41.1 µM.

Consider `O=C(NCc1ccc(F)cc1)c1cn(Cc2ccc(F)cc2)c2ccccc12` [N-Substituted indole-2- and 3-carboxamide derivative, 18], for which the IC50 stood at 56.7 µM in experiment [2] and 25.7 µM in experiment [1]. The matching figures for `O=C(NCc1ccccc1)c1cc2ccccc2n1Cc1ccccc1` [N-Substituted indole-2- and 3-carboxamide derivative, 1]: 78.2 µM and 40.3 µM. For `O=C(NCc1ccc(Cl)cc1)c1cn(Cc2ccc(F)cc2)c2ccccc12` [N-Substituted indole-2- and 3-carboxamide derivative, 17], in that order: 72.9 µM and 33.7 µM. Turning to `O=C(NCc1ccccc1)c1cn(Cc2ccc(F)cc2)c2ccccc12` [N-Substituted indole-2- and 3-carboxamide derivative, 16], the IC50 was 61.6 µM in experiment [2] and 33 µM in experiment [1]. For the molecule `O=C(NCc1ccc(F)cc1)c1cc2ccccc2n1Cc1ccccc1` [N-Substituted indole-2- and 3-carboxamide derivative, 3], the IC50 in experiment [1] is 27.2 µM.

For the origin of these results see BindingDB's records for doi:10.1111/j.1747-0285.2007.00590.x (2007).
